Some test systems named below: HCT-15; UACC-257; SR; OVCAR-3; NCI-H23; CCRF-CEM; U-251; RPMI-8226; UO-31; UACC-62; RXF 393; KM12; MOLT-4; A549; MCF7; MDA-N; MDA-MB-435; DU-145; BT-549.
What all share (assay): inhibition of tumour cell growth, NCI panel, 48 h

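Following 48 hours of exposure in 96-well plates, responses at five concentrations were used to interpolate endpoints linearly. Here, GI50 denotes the concentration required for 50% inhibition of growth.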 The source made the active and inactive calls. Cut-off read from the data, not from the text of the source: active = GI50 up to about 1.1 µM and inactive = higher.

As for `O=C(CCc1nnc(S)[nH]1)Nc1cccc(C(F)(F)F)c1`, the GI50 was more than 100 µM in the assay with HCT-15; > 100 µM (inactive) with UACC-257; > 100 µM (inactive) in the assay on SR; > 100 µM (inactive) in the assay on OVCAR-3; > 100 µM (inactive) in the assay on NCI-H23; > 100 µM (inactive) with CCRF-CEM. Besides, the GI50 in the assay on U-251, in the assay with RPMI-8226, in the assay with UO-31, with UACC-62, in the assay on RXF 393 and in the assay on KM12 was > 100 µM (inactive) each time. Moreover, the GI50 in the assay with MOLT-4 and in the assay with A549 was > 100 µM (inactive) each time.
With `COc1ccc2c(O)c1-c1c(OC)ccc(c1O)SSc1ccc(OC)c(c1O)-c1c(OC)ccc(c1O)SS2`, the GI50 with UACC-257 is > 100 µM (inactive); in the assay with MCF7 it was > 100 µM (inactive); with SR, 4.27 µM (inactive); with OVCAR-3 it was 20.6 µM (inactive); with CCRF-CEM it was 4.56 µM (inactive); in the assay with U-251 it was 19.2 µM (inactive). Besides, the GI50 in the assay with RPMI-8226 was 1.99 µM (inactive); in the assay with UO-31 it was 4.21 µM (inactive); with RXF 393, 16.1 µM (inactive); in the assay on KM12 it was 37.2 µM (inactive); in the assay on MDA-N, > 100 µM (inactive); with MDA-MB-435 it was > 100 µM (inactive). Besides, the GI50 is > 100 µM (inactive) in the assay on MOLT-4, 24.5 µM (inactive) in the assay with A549 and 29 µM (inactive) in the assay with DU-145.
As for `COc1ccc(OC)c2c(C(C)=O)cccc12`, the GI50 is more than 100 µM in the assay with HCT-15; > 100 µM (inactive) in the assay with UACC-257; > 100 µM (inactive) in the assay on MCF7; > 100 µM (inactive) in the assay with SR; > 100 µM (inactive) in the assay on OVCAR-3; > 100 µM (inactive) in the assay with NCI-H23. The GI50 in the assay with CCRF-CEM, in the assay on U-251, in the assay on RPMI-8226, in the assay with UO-31, with UACC-62 and with RXF 393 was > 100 µM (inactive) each time. Moreover, the GI50 with KM12 was > 100 µM (inactive); in the assay on MOLT-4 it was 81.8 µM (inactive); in the assay with A549, > 100 µM (inactive); in the assay on DU-145, > 100 µM (inactive).
As to `C#CCCCCC#CC1CCCC1C1=CC(=O)c2ccccc21` (centres undefined), the GI50 in the assay with HCT-15 is 7.24 µM; in the assay with UACC-257, 11.2 µM (inactive); with SR it was 2.79 µM (inactive); with OVCAR-3, 5.3 µM (inactive); with NCI-H23, 10.6 µM (inactive); with CCRF-CEM it was 1.5 µM (inactive). Also, the GI50 in the assay on U-251 was 4.43 µM (inactive); with RPMI-8226 it was 1.98 µM (inactive); with UO-31, 8.17 µM (inactive); in the assay with UACC-62, 2.05 µM (inactive); with RXF 393, 4.81 µM (inactive); in the assay with KM12 it was 6.27 µM (inactive). In addition, the GI50 in the assay on MOLT-4 was 2.25 µM (inactive); in the assay on A549 it was 13.5 µM (inactive).
On to `CC1SC(=O)SC1C` (centres undefined), for which the GI50 is more than 100 µM in the assay with HCT-15; > 100 µM (inactive) in the assay on UACC-257; > 100 µM (inactive) with MCF7; > 100 µM (inactive) in the assay with SR; > 100 µM (inactive) in the assay with CCRF-CEM; > 100 µM (inactive) in the assay with U-251. For the same molecule, the GI50 with RPMI-8226, in the assay with UO-31, with KM12, in the assay with MDA-N, with MDA-MB-435 and in the assay on MOLT-4 was > 100 µM (inactive) each time. Also, the GI50 in the assay with A549 is > 100 µM (inactive).
In the case of `NCCCN(CCCCN(CCCN)C(=O)OCc1ccccc1)C(=O)OCc1ccccc1`, the GI50 is more than 100 µM with HCT-15; 93.5 µM (inactive) in the assay with UACC-257; 30.9 µM (inactive) in the assay on MCF7; 43.2 µM (inactive) in the assay on OVCAR-3; > 100 µM (inactive) with NCI-H23; 47 µM (inactive) in the assay with CCRF-CEM. Also, the GI50 with U-251 is > 100 µM (inactive); with RPMI-8226, 73.3 µM (inactive); in the assay on UO-31, > 100 µM (inactive); in the assay with BT-549, > 100 µM (inactive); in the assay with UACC-62, 71.4 µM (inactive); in the assay with RXF 393, 98.6 µM (inactive). The GI50 in the assay on KM12 is > 100 µM (inactive); with MDA-MB-435, > 100 µM (inactive); in the assay on MOLT-4 it was 47.9 µM (inactive); with A549, > 100 µM (inactive); with DU-145 it was > 100 µM (inactive).
For the molecule `O=C1c2ccccc2CC1C1(O)C(=O)Nc2c(Cl)cc(Cl)cc21` (centres undefined), the GI50 with HCT-15 was 42.5 µM; with UACC-257 it was 27 µM (inactive); with OVCAR-3 it was 53.5 µM (inactive); in the assay with NCI-H23 it was 24.9 µM (inactive); in the assay on CCRF-CEM it was 26.6 µM (inactive); in the assay with U-251, 54.8 µM (inactive). Also, the GI50 is 20.8 µM (inactive) in the assay on RPMI-8226; 49.8 µM (inactive) in the assay on UO-31; 23.6 µM (inactive) in the assay with RXF 393; 47.2 µM (inactive) in the assay with KM12; 30.5 µM (inactive) in the assay on MOLT-4; 47.9 µM (inactive) with A549.
As for `COc1cc(OC)c(/C=N/N=C(\N)NO)c(OC)c1`, the GI50 in the assay with HCT-15 was 83.9 µM; with UACC-257 it was > 100 µM (inactive); in the assay with MCF7 it was > 100 µM (inactive); in the assay on SR, 63.5 µM (inactive); in the assay on OVCAR-3 it was > 100 µM (inactive); in the assay with NCI-H23 it was > 100 µM (inactive). Moreover, the GI50 in the assay with CCRF-CEM is > 100 µM (inactive); in the assay on U-251, > 100 µM (inactive); in the assay with RPMI-8226, > 100 µM (inactive); with UO-31, 29 µM (inactive); with UACC-62, 25.6 µM (inactive); in the assay on RXF 393 it was > 100 µM (inactive). In addition, the GI50 is 0.787 µM (active) with KM12; > 100 µM (inactive) in the assay with MDA-N; 49.8 µM (inactive) in the assay with MDA-MB-435; > 100 µM (inactive) with MOLT-4; 60.8 µM (inactive) in the assay with A549; 85.5 µM (inactive) in the assay on DU-145.
For the molecule `COc1ccc(N[S+]([O-])C2CCCCC2)cc1` (centres undefined), the GI50 in the assay with HCT-15 was more than 100 µM; in the assay with UACC-257 it was > 100 µM (inactive); in the assay with MCF7, > 100 µM (inactive); in the assay on SR it was > 100 µM (inactive); in the assay on OVCAR-3, > 100 µM (inactive); in the assay on NCI-H23 it was > 100 µM (inactive). In addition, the GI50 in the assay on CCRF-CEM, with U-251, in the assay with RPMI-8226, with UO-31, in the assay with RXF 393 and in the assay with KM12 was > 100 µM (inactive) each time. The GI50 in the assay on MDA-MB-435, in the assay on MOLT-4, with A549 and in the assay on DU-145 was > 100 µM (inactive) throughout.
Take `CC1CN=C(N(C)C(=O)Nc2ccc(Cl)cc2)S1` (centres undefined): the GI50 in the assay on HCT-15 is 0.841 µM; in the assay on UACC-257, 11.5 µM (inactive); with MCF7, 32.6 µM (inactive); with SR it was 12.3 µM (inactive); in the assay on OVCAR-3, 27.2 µM (inactive); in the assay on NCI-H23 it was 21.3 µM (inactive). Besides, the GI50 was > 10 µM (inactive) in the assay on CCRF-CEM; 13.3 µM (inactive) in the assay with U-251; > 10 µM (inactive) with RPMI-8226; 10.1 µM (inactive) in the assay on UO-31; 4.72 µM (inactive) in the assay on KM12; 8.69 µM (inactive) in the assay on MDA-N. Besides, the GI50 in the assay on MOLT-4 was 14 µM (inactive); with A549, 16.7 µM (inactive); with DU-145, 12.9 µM (inactive).
For `Nc1nc(N)c2ncn(Cc3ccccc3CO)c2n1`, the GI50 was more than 100 µM with HCT-15; > 100 µM (inactive) with UACC-257; > 100 µM (inactive) in the assay with MCF7; > 100 µM (inactive) with SR; > 100 µM (inactive) in the assay with OVCAR-3; > 100 µM (inactive) in the assay with NCI-H23. In addition, the GI50 is 29.7 µM (inactive) with CCRF-CEM; > 100 µM (inactive) in the assay on U-251; > 100 µM (inactive) in the assay with RPMI-8226; > 100 µM (inactive) in the assay with UO-31; > 100 µM (inactive) with BT-549; > 100 µM (inactive) with UACC-62. The GI50 in the assay with KM12, with MDA-MB-435, in the assay on MOLT-4, with A549 and with DU-145 was > 100 µM (inactive) in each case.
With `COP(=O)(Cc1ccccc1)Cc1ccccc1`, the GI50 in the assay with HCT-15 was more than 100 µM; in the assay on UACC-257 it was > 100 µM (inactive); in the assay on MCF7 it was > 100 µM (inactive); in the assay on SR, > 100 µM (inactive); with NCI-H23, > 100 µM (inactive); with CCRF-CEM, > 100 µM (inactive). Also, the GI50 with U-251 is > 100 µM (inactive); in the assay with RPMI-8226 it was > 100 µM (inactive); with UO-31, > 100 µM (inactive); with BT-549 it was > 100 µM (inactive); with UACC-62, > 100 µM (inactive); with RXF 393, 86.1 µM (inactive). Besides, the GI50 in the assay with MOLT-4, in the assay on A549 and in the assay on DU-145 was > 100 µM (inactive) throughout.
Regarding `CC(C)(Br)C(=O)/C=C/c1ccccc1`, the GI50 in the assay with HCT-15 is 1.97 µM; in the assay with UACC-257 it was 14.1 µM (inactive); with MCF7, 3.56 µM (inactive); with SR, 1.98 µM (inactive); with OVCAR-3, 8.17 µM (inactive); with NCI-H23, 1.94 µM (inactive). For the same molecule, the GI50 in the assay with CCRF-CEM was 0.22 µM (active); with U-251 it was 6.95 µM (inactive); with RPMI-8226 it was 0.925 µM (active); with UO-31, 1.84 µM (inactive); with UACC-62, 5.73 µM (inactive); in the assay on KM12, 13.1 µM (inactive). Moreover, the GI50 in the assay with MDA-N was 3.5 µM (inactive); in the assay on MDA-MB-435, 5.46 µM (inactive); in the assay with MOLT-4 it was 1.41 µM (inactive); in the assay with A549, 14.8 µM (inactive); in the assay on DU-145, 5.71 µM (inactive).

Source of the values: ChEMBL document CHEMBL1201862, “PubChem BioAssay data set” (2004).
